Measurements reported in US12653827B2, “Methods of treating indolent systemic mastocytosis” (Telios Pharma Inc., priority 2024, dated 2026).
Values joined by “and” are separate entries in the source; they are usually repeats but may differ in a detail not shown here. Equal values may be shown once.

How the values were obtained:
[1] = system: IL-8, MCP-1, MIP-1a, IL-13 and IL-10; assay: Antigen-induced cytokine production in ISM-like and healthy mast cell conditions; assay type: cell-based, human; conditions: ISM-like mast cells; treated two hours, antigen four hours
Procedure: Human mast cells were derived from bone marrow CD34+ cells from six healthy donors for up to eight weeks by culturing CD34+ cells in StemSpan SFEM II (Stem Cell Technologies) supplemented with stem cell factor (SCF; 100 ng/mL; R&D System), IL-6 (R&D Systems), IL-3 (R&D Systems) and 1% penicillin/streptomycin (P/S; Gibco) for the first 10 days and in StemSpan SFEM II supplemented with SCF and IL-6 and 1% P/S for the remaining time in culture. […] Supernatant was collected and histamine levels were measured using a Histamine ELISA kit (Eagle Biosciences). […] Percent of activated mast cells was calculated as number of activated mast cells over the total number of mast cells.
Human mast cells were differentiated from bone marrow CD34+ cells from two healthy donors, cultured and sensitized in ISM-like and healthy mast cell conditions as set forth in Example 4, treated with Compound 128 for two hours and stimulated with antigen for four hours. Supernatant was collected and cytokine levels were measured using the BD Cytometric Bead Array (CBA) human soluble protein master buffer kit (Becton Dickinson) and BD CBA human soluble protein flex sets for IL-8, MCP-1, MIP-1a, IL-13 and IL-10 (Becton Dickinson). […]

[2] = Clinical study in ISM patients, total symptom score (ISM-TSAF, SISM-TSAF); assay type: in vivo, human; conditions: 100 mg or 150 mg BID
Procedure: Efficacy of Compound 128 will be evaluated among adult subjects diagnosed with ISM as defined by WHO diagnostic criteria. The subjects have moderate-to-severe symptoms based on minimum mean total symptom scores (TSS) of ISM-TSAF over the 14-day eligibility screening period for assessment of TSS of ISM-TSAF. Minimum baseline TSS of ISM-TSAF for eligibility is >28. Subjects will receive either 50, 75, 100 or 150 mg BID of Compound 128 plus best supportive care. Subject will be treated for twenty-four weeks and will be evaluated at twelve weeks and twenty-four weeks. Evaluation will be based on the 14-day rolling average TSS of ISM-TSAF or SISM-TSAF. The TSS of ISM-TSAF is based on patient reporting on eleven separate symptoms, measuring the severity of a broad range of mastocytosis-related symptoms over the prior 24 hours, based on a score from zero (no symptoms) to ten (worst possible symptoms experienced) scale for a TSS between 0-110. The eleven symptoms to be scored by the subject are fatigue, abdominal pain, diarrhea, skin spots, itching, flushing, brain fog, headache, dizziness and bone pain. The TSS of SISM-TSAF is based on patient reporting on nine separate symptoms based on a score from zero (no symptoms) to ten (worst possible symptoms experienced). The nine symptoms to be scored by the subject are muscle pain, runny nose, nasal congestion, wheezing, shortness of breath, throat itching, heart palpitations, difficulty concentrating, and diarrhea. The first eight items measure the severity of a broad range of mastocytosis-related symptoms over the prior 24 hours. Each of the first eight symptom is assessed on a 0 (None) to 10 (Worst Imaginable) scale for a TSS between 0-80. The 9th item measures incidence of diarrhea over the prior 24 hours. Endpoints will also be based on mean change in TSS of ISM-TSAF or SISM-TSAF based on 14-day average of patient-reported severity of ISM symptoms; mean change in serum tryptase level, KIT D816V VAF, change in best supportive care medications and change in number of anaphylactic episodes.
Five ISM patients have been treated with Compound 128 at 100 mg or 150 mg BID. At week 12, the TSS of ISM-TSAF is reduced by 28 points compared to the placebo group (FIG. 24), and the TSS of SISM-TSAF is reduced by 22.7 points, compared to the placebo (FIG. 25). In contrast, avapritinib 25 mg QD reduced the TSS of ISM-TSAF by 5.7 points at week 24 (FIG. 23). The average reduction of total symptom score of ISM-TSAF is 55% compared to the baseline while the average reduction of total symptom score of ISM-TSAF is 38% compared to the placebo group (FIG. 28).

[3] = system: mast cells; assay: Phosphorylation and degranulation markers in antigen-stimulated mast cells grown with chronic SCF (FIG. 21); assay type: cell-based; conditions: 0.1-0.6 μM, antigen 15 minutes
Procedure: Histamine release, CD63 expression, CD203c expression, pBTK (Y223) levels, pP38 (T180/Y182) levels, pPLCg1 (S1248) levels, pERK (T202/Y204) levels, and pS6 (S235/236) levels are shown. Mast cells were grown with continuous (chronic) exposure to SCF and then stimulated with antigen (Ag) for 15 minutes, leading to phosphorylation of multiple kinases, including pBTK, pPLCγ1, pP38, pERK, and pS6 ribosome. This stimulation increases degranulation markers, including CD63, CD203c, and histamine release.

[4] = system: mast cells; assay: Potency across healthy and ISM mast cells (FIG. 16); assay type: cell-based; conditions: presence of SCF; CD63, CD203, pBTK, histamine, calcium flux
Procedure: Healthy BM-MC donor 0166 and ISM WB-MC 1061-004 17 Jan. 2024 and 17 Oct. 2024. Experiments performed in the presence of SCF. Sensitization and Stimulation: NP-IgE (100 ng/mL) 18 hrs, NP-BSA (0.5 ng/mL) for 15 min at 37° C. (CD63, CD203, pBTK and histamine) or 4 min at RT (Calcium Flux).

## C=CC(=O)N1CCC(F)(CNc2ncnc(N)c2-c2ccc(Oc3ccccc3)cc2)CC1 [Compound 128, 1-(4-(((6-amino-5-(4-phenoxyphenyl)pyrimidin-4-yl)amino)methyl)-4-fluoropiperidin-1-yl)prop-2-en-1-one]
[1]
  IgE-mediated cytokine production: inhibited
[2]
  average reduction of total symptom score of ISM-TSAF compared to the placebo group: 38%
[2]; 12-week treatment
  average reduction of total symptom score of ISM-TSAF compared to the baseline: 55%
[2]; week 12
  reduction of TSS of ISM-TSAF compared to the placebo group: 28.0 points and 28 points
  reduction of TSS of SISM-TSAF compared to the placebo: 22.7 points
[3]
  phosphorylation (pBTK, pPLCγ1, pP38, pERK, pS6) and degranulation (CD63, CD203c, histamine): decrease to near basal levels
[4]
  potency across healthy mast cells and ISM mast cells: equipotent
